Test system: MV-4-11 cells
Test: Gene expression microarray analysis (Affymetrix PrimeView) and GSEA
Format: cell-based, human
Set-up: RFU PODN (11730768_x_at) / Fold change /veh PODN (11730768_x_at) / RFU LINC00158 (11744669_a_at) / Fold change /veh LINC00158 (11744669_a_at) / RFU DUSP10 (11751237_a_at) / Fold change /veh DUSP10 (11751237_a_at) / RFU ID3 (11757404_x_at) / Fold change /veh ID3 (11757404_x_at) / RFU PLEKHG5 (11737974_s_at) / Fold change /veh PLEKHG5 (11737974_s_at) / RFU LRRC4B (11730491_at) / Fold change /veh LRRC4B (11730491_at) / RFU GIMAP4 (11747438_a_at) / Fold change /veh GIMAP4 (11747438_a_at) / RFU KRT8 (11758183_x_at) / Fold change /veh KRT8 (11758183_x_at) / RFU CNN1 (11734310_a_at) / Fold change /veh CNN1 (11734310_a_at) / RFU VPS37D (11726825_at) / Fold change /veh VPS37D (11726825_at) / RFU C10orf10 (11716522_x_at) / Fold change /veh C10orf10 (11716522_x_at) / RFU KIR2DL2 /// KIR2DL4 /// KIR2DL5A /// KIR2DL5B /// KIR2DS1 /// KIR2DS2 /// KIR2DS3 /// KIR2DS4 /// KIR3DL3 /// KIR3DL3 /// KIR3DS1 (11738374_at) / Fold change /veh KIR2DL2 /// KIR2DL4 /// KIR2DL5A /// KIR2DL5B /// KIR2DS1 /// KIR2DS2 /// KIR2DS3 /// KIR2DS4 /// KIR3DL3 /// KIR3DL3 /// KIR3DS1 (11738374_at) / RFU C1QL1 (11718748_at) / Fold change /veh C1QL1 (11718748_at) / RFU TMPRSS4 (11747572_a_at) / Fold change /veh TMPRSS4 (11747572_a_at) / RFU HAMP (11756126_x_at) / Fold change /veh HAMP (11756126_x_at) / RFU RNFT2 (11725882_a_at) / Fold change /veh RNFT2 (11725882_a_at) / RFU NR4A2 (11747474_a_at) / Fold change /veh NR4A2 (11747474_a_at) / RFU ABCC12 (11746883_a_at) / Fold change /veh ABCC12 (11746883_a_at) / RFU TMEM136 (11760407_x_at) / Fold change /veh TMEM136 (11760407_x_at) / RFU CLDN22 /// WWC2 (11732394_at) / Fold change /veh CLDN22 /// WWC2 (11732394_at) / RFU HLA-DPB1 (11760878_x_at) / Fold change /veh HLA-DPB1 (11760878_x_at) / RFU SPINT1 (11716480_a_at) / Fold change /veh SPINT1 (11716480_a_at) / RFU GAP43 (11754022_s_at) / Fold change /veh GAP43 (11754022_s_at) / RFU A4GNT (11735810_at) / Fold change /veh A4GNT (11735810_at) / RFU PRB3 (11715151_x_at) / Fold change /veh PRB3 (11715151_x_at) / RFU TUBB4B (11761932_at) / Fold change /veh TUBB4B (11761932_at) / RFU CAPN14 (11732068_a_at) / Fold change /veh CAPN14 (11732068_a_at) / RFU TMCC2 (11721928_a_at) / Fold change /veh TMCC2 (11721928_a_at) / RFU IRGQ (11745062_a_at) / Fold change /veh IRGQ (11745062_a_at) / RFU FAM174B (11720279_a_at) / Fold change /veh FAM174B (11720279_a_at) / RFU TMPRSS4 (11748680_a_at) / Fold change /veh TMPRSS4 (11748680_a_at) / RFU FAM212B (11763350_a_at) / Fold change /veh FAM212B (11763350_a_at) / RFU PLEKHG5 (11743358_a_at) / Fold change /veh PLEKHG5 (11743358_a_at) / RFU ZSCAN30 (11745921_a_at) / Fold change /veh ZSCAN30 (11745921_a_at) / RFU CMKLR1 (11741424_a_at) / Fold change /veh CMKLR1 (11741424_a_at) / RFU LOC101060620 /// MAPK8IP1 (11723275_at) / Fold change /veh LOC101060620 /// MAPK8IP1 (11723275_at) / RFU SPTSSB (11747773_x_at) / Fold change /veh SPTSSB (11747773_x_at) / RFU PRSS12 (11739890_at) / Fold change /veh PRSS12 (11739890_at) / RFU BIN1 (11741810_x_at) / Fold change /veh BIN1 (11741810_x_at) / RFU WNT11 (11732464_a_at) / Fold change /veh WNT11 (11732464_a_at) / RFU C10orf10 (11716521_a_at) / Fold change /veh C10orf10 (11716521_a_at) / RFU C5orf56 (11738089_at) / Fold change /veh C5orf56 (11738089_at) / RFU CYB561 (11721691_x_at) / Fold change /veh CYB561 (11721691_x_at) / RFU ANKRD19P (11752326_a_at) / Fold change /veh ANKRD19P (11752326_a_at) / RFU OR2T12 /// OR2T33 /// OR2T8 (11738714_s_at) / Fold change /veh OR2T12 /// OR2T33 /// OR2T8 (11738714_s_at) / RFU VCAN (11748164_a_at) / Fold change /veh VCAN (11748164_a_at) / RFU JSRP1 (11732532_at) / Fold change /veh JSRP1 (11732532_at) / RFU KRTAP10-11 (11738290_x_at) / Fold change /veh KRTAP10-11 (11738290_x_at) / RFU MYO3A (11730013_a_at) / Fold change /veh MYO3A (11730013_a_at) / RFU EBF3 (11725865_a_at) / Fold change /veh EBF3 (11725865_a_at) / RFU CAMK2N1 (11719241_x_at) / Fold change /veh CAMK2N1 (11719241_x_at) / RFU C5orf56 (11738088_a_at) / Fold change /veh C5orf56 (11738088_a_at) / RFU OLFML3 (11715873_a_at) / Fold change /veh OLFML3 (11715873_a_at) / RFU LOC100653217 /// NTM (11731650_a_at) / Fold change /veh LOC100653217 /// NTM (11731650_a_at) / RFU MAPK11 (11762145_a_at) / Fold change /veh MAPK11 (11762145_a_at) / RFU FIZ1 (11724087_x_at) / Fold change /veh FIZ1 (11724087_x_at) / RFU OASL (11726364_x_at) / Fold change /veh OASL (11726364_x_at) / RFU SOX15 (11748057_x_at) / Fold change /veh SOX15 (11748057_x_at) / RFU CD79A (11719716_a_at) / Fold change /veh CD79A (11719716_a_at) / RFU HIST1H1D (11736915_at) / Fold change /veh HIST1H1D (11736915_at) / RFU CASKIN2 (11723855_a_at) / Fold change /veh CASKIN2 (11723855_a_at) / RFU LOC730098 (11760151_x_at) / Fold change /veh LOC730098 (11760151_x_at) / RFU OR4N2 (11742367_at) / Fold change /veh OR4N2 (11742367_at) / RFU PRRT2 (11749266_a_at) / Fold change /veh PRRT2 (11749266_a_at) / RFU SNX32 (11753110_a_at) / Fold change /veh SNX32 (11753110_a_at) / RFU CDHR5 (11726645_a_at) / Fold change /veh CDHR5 (11726645_a_at) / RFU RCAN1 (11760418_a_at) / Fold change /veh RCAN1 (11760418_a_at) / RFU FAM167A (11723789_a_at) / Fold change /veh FAM167A (11723789_a_at) / RFU FAM26E (11764081_at) / Fold change /veh FAM26E (11764081_at) / RFU ISYNA1 (11749810_s_at) / Fold change /veh ISYNA1 (11749810_s_at) / RFU ACY1 (11761880_at) / Fold change /veh ACY1 (11761880_at) / RFU 11764098_at / Fold change /veh 11764098_at / RFU SAMD14 (11745864_x_at) / Fold change /veh SAMD14 (11745864_x_at) / RFU NPB (11741838_a_at) / Fold change /veh NPB (11741838_a_at) / RFU TMPRSS6 (11731388_a_at) / Fold change /veh TMPRSS6 (11731388_a_at) / RFU KRTAP10-2 (11738614_at) / Fold change /veh KRTAP10-2 (11738614_at) / RFU ARHGAP8 /// PRR5-ARHGAP8 (11727945_x_at) / Fold change /veh ARHGAP8 /// PRR5-ARHGAP8 (11727945_x_at) / RFU KRTAP5-7 /// NADSYN1 (11734609_at) / Fold change /veh KRTAP5-7 /// NADSYN1 (11734609_at) / RFU RASL12 (11751679_a_at) / Fold change /veh RASL12 (11751679_a_at) / RFU CDKN2B (11736163_a_at) / Fold change /veh CDKN2B (11736163_a_at) / RFU PRF1 (11729649_at) / Fold change /veh PRF1 (11729649_at) / RFU, ZNF638 /// ZNF638-IT1 / Fold change vs veh, ZNF638 /// ZNF638-IT1 / RFU, PANK3 / Fold change vs veh, PANK3 / RFU, SH3YL1 / Fold change vs veh, SH3YL1 / RFU, ZEB2 / Fold change vs veh, ZEB2 / RFU, NRIP1 / Fold change vs veh, NRIP1 / RFU, PTTG1IP / Fold change vs veh, PTTG1IP / RFU, CAPN2 / Fold change vs veh, CAPN2 / RFU, MED14 / Fold change vs veh, MED14 / RFU, SNORA58 / Fold change vs veh, SNORA58 / RFU, C1orf63 / Fold change vs veh, C1orf63 / RFU, LRRFIP1 / Fold change vs veh, LRRFIP1 / RFU, NDUFAF7 / Fold change vs veh, NDUFAF7 / RFU, SLC12A2 / Fold change vs veh, SLC12A2 / RFU, IBTK / Fold change vs veh, IBTK / RFU, ESF1 / Fold change vs veh, ESF1 / Fold change vs veh, TMEM50B / RFU, TAOK1 / Fold change vs veh, TAOK1 / RFU, ACBD3 / Fold change vs veh, ACBD3 / RFU, TMA16 / Fold change vs veh, TMA16 / RFU, RWDD3 / Fold change vs veh, RWDD3 / RFU, BCAT1 / Fold change vs veh, BCAT1 / RFU, EDEM3 / Fold change vs veh, EDEM3 / RFU, TMEM33 / Fold change vs veh, TMEM33 / RFU, WDR75 / Fold change vs veh, WDR75 / RFU, AHCTF1 / Fold change vs veh, AHCTF1 / RFU, TFRC / Fold change vs veh, TFRC / RFU, ZDHHC17 / Fold change vs veh, ZDHHC17 / RFU, NOM1 / Fold change vs veh, NOM1 / RFU, ARL8B / Fold change vs veh, ARL8B / RFU, ZBTB11 / Fold change vs veh, ZBTB11 / RFU, TAMM41 / Fold change vs veh, TAMM41 / RFU, KIAA1704 /// LOC100996395 / Fold change vs veh, KIAA1704 /// LOC100996395 / RFU, ING1 / Fold change vs veh, ING1 / RFU, TRMT61B / Fold change vs veh, TRMT61B / RFU, FUBP3 / Fold change vs veh, FUBP3 / RFU, TP53 / Fold change vs veh, TP53 / RFU, TNKS2 / Fold change vs veh, TNKS2 / RFU, ZFP14 / Fold change vs veh, ZFP14 / RFU, ACTR2 / Fold change vs veh, ACTR2 / RFU, PPP3R1 / Fold change vs veh, PPP3R1 / RFU, PIK3R1 / Fold change vs veh, PIK3R1 / RFU, HNRNPA1 / Fold change vs veh, HNRNPA1 / RFU, RNF170 / Fold change vs veh, RNF170 / RFU, ZNF28 / Fold change vs veh, ZNF28 / RFU, RNGTT / Fold change vs veh, RNGTT / RFU, OGT / Fold change vs veh, OGT / RFU, BRD1 / Fold change vs veh, BRD1 / RFU, MARS / Fold change vs veh, MARS / RFU, ZNF655 / Fold change vs veh, ZNF655 / RFU, FAHD1 / Fold change vs veh, FAHD1 / RFU, BDP1 / Fold change vs veh, BDP1 / RFU, LRRCC1 / Fold change vs veh, LRRCC1 / RFU, ARID1A / Fold change vs veh, ARID1A / RFU, ZNF146 / Fold change vs veh, ZNF146 / RFU, ZNF330 / Fold change vs veh, ZNF330 / RFU, GPN3 / Fold change vs veh, GPN3 / RFU, C9orf123 / Fold change vs veh, C9orf123 / RFU, N4BP2L2 / Fold change vs veh, N4BP2L2 / RFU, ARFIP1 / Fold change vs veh, ARFIP1 / RFU, FAM179B / Fold change vs veh, FAM179B / RFU, BCL10 / Fold change vs veh, BCL10 / RFU, UHRF1BP1L / Fold change vs veh, UHRF1BP1L / RFU, BET1 / Fold change vs veh, BET1 / RFU, CNOT2 / Fold change vs veh, CNOT2 / RFU, ZNF268 / Fold change vs veh, ZNF268 / Fold change vs veh, ZNF507 / RFU, DGCR2 / Fold change vs veh, DGCR2 / RFU, WDSUB1 / Fold change vs veh, WDSUB1 / Fold change vs veh, HSP90B1 /// MIR3652 / RFU, ADSS / Fold change vs veh, ADSS / RFU, GK / Fold change vs veh, GK / RFU, ZNF148 / Fold change vs veh, ZNF148 / RFU, TAF9 / Fold change vs veh, TAF9 / RFU, SLC1A5 / Fold change vs veh, SLC1A5 / RFU, SLMO2 / Fold change vs veh, SLMO2 / RFU, ABCC4 / Fold change vs veh, ABCC4 / RFU, LOC101060439 /// RAP1B / Fold change vs veh, LOC101060439 /// RAP1B / RFU, RFX7 / Fold change vs veh, RFX7 / RFU, GTPBP10 / Fold change vs veh, GTPBP10 / RFU, CNEP1R1 / Fold change vs veh, CNEP1R1 / RFU, BIVM-ERCC5 /// ERCC5 / Fold change vs veh, BIVM-ERCC5 /// ERCC5 / RFU, ILF3 / Fold change vs veh, ILF3 / RFU 11762660_at / Fold change /veh 11762660_at / RFU VCAN (11757783_s_at) / Fold change /veh VCAN (11757783_s_at) / RFU DDX43 (11728927_at) / Fold change /veh DDX43 (11728927_at) / RFU KRT8 (11758188_x_at) / Fold change /veh KRT8 (11758188_x_at) / RFU NKD1 (11759106_at) / Fold change /veh NKD1 (11759106_at) / RFU SRD5A1 (11742802_a_at) / Fold change /veh SRD5A1 (11742802_a_at) / RFU TPSAB1 /// TPSB2 (11721975_s_at) / Fold change /veh TPSAB1 /// TPSB2 (11721975_s_at) / RFU GSTM3 (11746129_a_at) / Fold change /veh GSTM3 (11746129_a_at) / RFU IL23R (11737362_x_at) / Fold change /veh IL23R (11737362_x_at) / RFU TMEM51 (11727254_a_at) / Fold change /veh TMEM51 (11727254_a_at) / RFU PIWIL2 (11732686_x_at) / Fold change /veh PIWIL2 (11732686_x_at) / RFU ORM1 (11744905_x_at) / Fold change /veh ORM1 (11744905_x_at) / RFU CCDC152 (11743942_at) / Fold change /veh CCDC152 (11743942_at) / RFU ECM1 (11717891_a_at) / Fold change /veh ECM1 (11717891_a_at) / RFU IL23R (11748794_a_at) / Fold change /veh IL23R (11748794_a_at) / RFU TNFAIP8L3 (11732012_x_at) / Fold change /veh TNFAIP8L3 (11732012_x_at) / RFU MBOAT4 (11741988_at) / Fold change /veh MBOAT4 (11741988_at) / RFU 11764193_at / Fold change /veh 11764193_at / RFU TMEM53 (11763286_at) / Fold change /veh TMEM53 (11763286_at) / RFU MAGEB2 (11727129_at) / Fold change /veh MAGEB2 (11727129_at) / RFU TMEM200A (11744735_a_at) / Fold change /veh TMEM200A (11744735_a_at) / RFU CCDC152 (11751479_a_at) / Fold change /veh CCDC152 (11751479_a_at) / RFU FAM211A (11726209_a_at) / Fold change /veh FAM211A (11726209_a_at) / RFU RGS16 (11746705_a_at) / Fold change /veh RGS16 (11746705_a_at) / RFU VCAN (11755009_s_at) / Fold change /veh VCAN (11755009_s_at) / RFU RHOB (11743442_s_at) / Fold change /veh RHOB (11743442_s_at) / RFU RGS16 (11720943_a_at) / Fold change /veh RGS16 (11720943_a_at) / RFU RGS16 (11720944_at) / Fold change /veh RGS16 (11720944_at) / RFU, VPS4B / Fold change vs veh, VPS4B / RFU, CREB1 / Fold change vs veh, CREB1 / RFU, DNAJC13 / Fold change vs veh, DNAJC13 / RFU, GNAQ / Fold change vs veh, GNAQ / RFU, CDK5R1 / Fold change vs veh, CDK5R1 / RFU, ZRANB3 / Fold change vs veh, ZRANB3 / RFU, CUL4A / Fold change vs veh, CUL4A / RFU, CCNY / Fold change vs veh, CCNY / RFU, UFL1 / Fold change vs veh, UFL1 / RFU, COG3 / Fold change vs veh, COG3 / RFU, DIAPH2 / Fold change vs veh, DIAPH2 / RFU, SKA2 / Fold change vs veh, SKA2 / RFU, AFF3 / Fold change vs veh, AFF3 / RFU, LMF1 / Fold change vs veh, LMF1 / RFU, IPO11 / Fold change vs veh, IPO11 / RFU, DFFB / Fold change vs veh, DFFB / RFU, FOXP1 / Fold change vs veh, FOXP1 / RFU, CARD8 / Fold change vs veh, CARD8 / RFU, STRN3 / Fold change vs veh, STRN3 / RFU, ADK / Fold change vs veh, ADK / RFU, RASSF2 / Fold change vs veh, RASSF2 / RFU, WIPF1 / Fold change vs veh, WIPF1 / RFU, LARP1B / Fold change vs veh, LARP1B / RFU, RASA1 / Fold change vs veh, RASA1 / RFU, RB1 / Fold change vs veh, RB1 / RFU, PPFIA1 / Fold change vs veh, PPFIA1 / RFU, MAT2A / Fold change vs veh, MAT2A / RFU, CCT5 / Fold change vs veh, CCT5 / RFU, WDR92 / Fold change vs veh, WDR92 / RFU, CUX1 / Fold change vs veh, CUX1 / RFU, TTC7A / Fold change vs veh, TTC7A / RFU, TMEM135 / Fold change vs veh, TMEM135 / RFU, DEPTOR / Fold change vs veh, DEPTOR / RFU, CPM / Fold change vs veh, CPM / RFU, DNAJB6 / Fold change vs veh, DNAJB6 / RFU, CACNA2D3 / Fold change vs veh, CACNA2D3 / RFU, DTX4 / Fold change vs veh, DTX4 / RFU, TFCP2 / Fold change vs veh, TFCP2 / RFU, GMCL1 /// GMCL1P1 / Fold change vs veh, GMCL1 /// GMCL1P1 / RFU, AEBP2 / Fold change vs veh, AEBP2 / RFU, SNHG1 /// SNORD22 /// SNORD25 /// SNORD26 /// SNORD27 /// SNORD28 /// SNORD29 /// SNORD31 / Fold change vs veh, SNHG1 /// SNORD22 /// SNORD25 /// SNORD26 /// SNORD27 /// SNORD28 /// SNORD29 /// SNORD31 / Fold change (Aza/veh), C12orf56 (ProbeSet 11735607_a_at) / Fold change (ACY-1035/veh), C12orf56 (ProbeSet 11735607_a_at) / Fold change (Aza/veh), FGFR1OP (ProbeSet 11751329_s_at) / Fold change (ACY-1035/veh), FGFR1OP (ProbeSet 11751329_s_at) / Fold change (Aza/veh), VPS36 (ProbeSet 11739960_a_at) / Fold change (ACY-1035/veh), VPS36 (ProbeSet 11739960_a_at) / RFU SYPL1 (11715823_x_at) / Fold change /veh SYPL1 (11715823_x_at) / RFU IGFBP7 (11715501_s_at) / Fold change /veh IGFBP7 (11715501_s_at) / RFU REEP3 (11722064_at) / Fold change /veh REEP3 (11722064_at) / RFU IGLL1 (11728026_x_at) / Fold change /veh IGLL1 (11728026_x_at): dose or concentration left out as unconfirmed
Details: MV-4-11 cells, 48 hours

Nc1ccc(-c2cccs2)cc1NC(=O)c1ccc2c(c1)cc(C1CC1)n2CCN1CCOCC1 [ACY-1035]
Fold change /veh LOC730098 (11760151_x_at): 1.00

From article PMC5218480 (PLoS ONE, 2017)
